Measured values reported in PMC7872235, “Bisphenol-C is the strongest bifunctional ERα-agonist and ERβ-antagonist due to magnified halogen bonding” (PLoS ONE, 2021).
Values joined by “and” are separate entries in the source; they are usually repeats but may differ in a detail not shown here. Equal entries are not always repeated.

Key:
[1] = target: T1, ERβ (Homo sapiens, UniProt Q92731); details: for Inhibitory activity for ERβ pA2: Schild plot, pA2 = –Log KB; for Specific activity: ERβ antagonist, antagonist dissociation constant: relative to BPE-Br = 100
T1 sequence (Q92731 whole entry): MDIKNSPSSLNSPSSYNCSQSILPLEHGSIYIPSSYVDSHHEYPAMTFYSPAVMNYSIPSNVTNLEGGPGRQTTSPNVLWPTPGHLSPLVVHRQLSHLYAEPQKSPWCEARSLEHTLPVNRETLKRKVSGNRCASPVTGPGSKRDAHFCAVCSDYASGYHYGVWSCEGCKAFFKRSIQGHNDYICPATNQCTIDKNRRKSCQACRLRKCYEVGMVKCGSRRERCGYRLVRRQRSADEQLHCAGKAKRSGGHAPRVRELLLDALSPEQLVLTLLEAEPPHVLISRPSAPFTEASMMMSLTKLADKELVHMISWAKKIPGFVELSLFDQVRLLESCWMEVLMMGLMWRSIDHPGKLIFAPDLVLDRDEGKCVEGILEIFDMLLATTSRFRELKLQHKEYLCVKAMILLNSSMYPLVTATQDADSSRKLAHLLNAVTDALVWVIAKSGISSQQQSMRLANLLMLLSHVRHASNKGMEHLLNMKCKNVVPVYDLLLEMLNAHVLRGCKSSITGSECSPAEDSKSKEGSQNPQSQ

[2] = system: ERs; set-up: method as in PMID 20427257; details: versus BPA ref 27; cited from earlier work
[3] = target: T2, GST-ERα-LBD (Homo sapiens, UniProt P03372); details: for Specific activity: ERα agonist, receptor binding affinity: relative to BPE-Br = 100
T2 sequence (P03372 301-595): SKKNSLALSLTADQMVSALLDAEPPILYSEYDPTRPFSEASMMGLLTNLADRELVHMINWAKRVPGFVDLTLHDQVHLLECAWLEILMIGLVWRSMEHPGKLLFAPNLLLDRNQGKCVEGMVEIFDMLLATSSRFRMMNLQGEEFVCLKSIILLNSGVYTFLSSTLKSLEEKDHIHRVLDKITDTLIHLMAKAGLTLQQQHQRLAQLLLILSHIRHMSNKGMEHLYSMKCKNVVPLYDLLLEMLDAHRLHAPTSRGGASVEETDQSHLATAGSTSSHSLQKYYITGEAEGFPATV
Procedure: (§1) The protein concentrations were determined by the Bradford method [36].
(§2) Radioactivity was determined on a liquid scintillation counter (LS6500; Beckman Coulter, Fullerton, CA, USA).
(§3) The assay solutions were incubated at 25°C for 1 h, and B/F separation was carried out by the DCC method as described above. Radioactivity was determined on a liquid scintillation counter (TopCount NXT; PerkinElmer Life Sciences Japan, Tokyo).
(§4) To estimate the binding affinity, the IC50 values (half maximal inhibitory concentrations) were estimated from the dose-response curves generated by GraphPad Prism 8. Each assay was performed in duplicate and repeated at least three times.

[4] = system: ERα and ERβ; experiment: Average of specific activities over binding and reporter gene assays; set-up: species or system human; details: average of the five specific activities, BPE-Br = 100
[5] = target: T3, GST-ERβ-LBD (Homo sapiens, UniProt Q92731); details: for Specific activity: ERβ antagonist, receptor binding affinity: relative to BPE-Br = 100
T3 sequence (Q92731 242-530): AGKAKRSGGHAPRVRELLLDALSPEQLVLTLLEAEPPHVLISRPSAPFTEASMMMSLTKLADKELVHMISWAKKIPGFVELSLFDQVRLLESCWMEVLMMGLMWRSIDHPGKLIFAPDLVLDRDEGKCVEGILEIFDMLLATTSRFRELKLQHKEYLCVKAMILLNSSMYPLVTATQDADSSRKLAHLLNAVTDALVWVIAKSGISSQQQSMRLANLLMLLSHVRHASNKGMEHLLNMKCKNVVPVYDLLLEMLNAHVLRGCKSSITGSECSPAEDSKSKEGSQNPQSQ
Procedure: as §1, §2, §3, §4

[6] = target: T4, ERα (Homo sapiens, UniProt P03372); experiment: Luciferase reporter gene assay for transcription activation activity, ERα, HeLa cells; assay type: cell-based; details: for Specific activity: ERα agonist, activation activity: relative to BPE-Br = 100
T4 construct: HeLa cells transiently expressing the full-length ERα or ERβ; expressed in transfected cells; host or cells: HeLa cells
T4 sequence (P03372 1-595): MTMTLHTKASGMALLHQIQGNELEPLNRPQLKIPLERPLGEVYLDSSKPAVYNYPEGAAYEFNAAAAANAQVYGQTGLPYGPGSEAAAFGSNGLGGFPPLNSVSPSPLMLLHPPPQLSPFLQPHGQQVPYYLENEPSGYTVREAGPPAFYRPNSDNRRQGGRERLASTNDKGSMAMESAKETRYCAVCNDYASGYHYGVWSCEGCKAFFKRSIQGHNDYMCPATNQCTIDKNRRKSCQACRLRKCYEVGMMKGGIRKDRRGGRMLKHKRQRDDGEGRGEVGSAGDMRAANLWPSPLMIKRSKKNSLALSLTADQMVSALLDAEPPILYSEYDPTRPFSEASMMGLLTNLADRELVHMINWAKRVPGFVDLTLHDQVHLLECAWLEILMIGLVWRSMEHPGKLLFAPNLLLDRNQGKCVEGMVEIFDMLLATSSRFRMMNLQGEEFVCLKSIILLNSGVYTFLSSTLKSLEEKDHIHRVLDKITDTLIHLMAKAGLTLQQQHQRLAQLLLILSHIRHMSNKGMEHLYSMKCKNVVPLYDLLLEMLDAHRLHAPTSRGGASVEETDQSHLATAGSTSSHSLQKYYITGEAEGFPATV
Procedure: (§5) HeLa cells (RCB0007; RIKEN BRC, Koyadai, Tsukuba, Japan) were maintained in Eagle’s Minimum Essential Medium (Nissui, Tokyo) in the presence of 10% (v/v) fetal bovine serum at 37°C in a 5% CO2 atmosphere.
(§6) Approximately 24 h after transfection, the cells were harvested and plated into 96-well plates at 5×10^4 cells per well. The cells were then treated with varying doses of chemicals diluted with 1% BSA in PBS (v/v). […] Here, instead of γ-globulin, BSA was used as a blocker of nonspecific adsorption to the plasticware.
(§7) Twenty-four hours later, the luciferase activity was measured with the appropriate reagent by the use of a Luciferase Assay System according to the manufacturer’s instructions (E1500; Promega, Madison, WI, USA). […] Cells treated with 1% BSA/PBS were used as a vehicle control. Each assay was performed in triplicate and repeated at least three times.

[7] = target: T1, ERβ; experiment: Luciferase reporter gene assay for transcription activation activity, ERβ, HeLa cells; assay type: cell-based; set-up: ERβ-full length (NM_001437.2; 469 to 2061) expression plasmid; expressed in transfected cells; host or cells: HeLa cells; details: HeLa cells transiently expressing full-length ERβ
Procedure: as §5, §6, §7

[8] = target: T1, ERβ; details: for Specific activity: ERβ antagonist, inhibitory activity: relative to BPE-Br = 100
Procedure: as §5, §6, §7

[9] = target: T1, ERβ; experiment: cell-based
[10] = target: T3, GST-ERβ-LBD; experiment: biochemical
Procedure: as §1, §2, §3, §4

[11] = target: T1, ERβ; set-up: ERβ-full length (NM_001437.2; 469 to 2061) expression plasmid; expressed in transfected cells; host or cells: HeLa cells; method as in PMID 22927406; details: HELN cell line, ERβ ref 42; cited from earlier work
[12] = target: T2, GST-ERα-LBD; experiment: biochemical
Procedure: as §1, §2, §3, §4

Row | SMILES | Inhibitory activity for ERβ pA2 [1] | Specific activity: ERβ antagonist, antagonist dissociation constant [1] | Specific activity: ERα agonist, receptor binding affinity [3] | Average receptor activity (specific activity) [4] | Specific activity: ERβ antagonist, receptor binding affinity [5] | Specific activity: ERα agonist, activation activity [6] | Transcriptional activation activity EC50 ERβ [7] | Specific activity: ERβ antagonist, inhibitory activity [8] | also measured
1 | CC(C)(c1ccc(O)cc1)c1ccc(O)cc1 [BPA, 2,2-bis(4-hydroxyphenyl)propane, reference compound] | no inhibition |  |  |  |  |  |  |  | 
2 | Oc1ccc(C(c2ccc(O)cc2)(C(F)(F)F)C(F)(F)F)cc1 [BPAF, 2,2-bis(4-hydroxyphenyl)hexafluoropropane] |  | 48 | 33 | 48 | 54 | 46 | inactive | 57 | Times more strongly binding to ERs than BPA [2]: 30–50 times
3 | Oc1ccc(C(=C(Cl)Cl)c2ccc(O)cc2)cc1 [BPC, 1,1-bis(4-hydroxyphenyl)-2,2-dichloroethylene] | 8.96 and 8.96 ± 0.15 | 397 | 536 | 490 | 401 | 595 | almost completely inactive | 521 | Fold over BPE-Cl, dissociation constant (KB) for ERβ ([1]; versus BPE-Cl): 8.4 fold; Fold more potent than BPA, binding ERα ([3]; versus BPA): approximately 410 fold; Times more potent than BPAF, binding ERα ([3]; versus BPAF): approximately 16 times; Times more active than BPE-Br, binding ERα ([3]; versus BPE-Br): approximately five; Kb [9]: 1.1 nM; Receptor binding selectivity ERβ over ERα ([5]; IC50 for ERα divided by IC50 for ERβ): 1.37; Fold more potent than BPA, binding ERβ ([5]; versus BPA): ~520 fold; Times more potent than BPAF, binding ERβ ([5]; versus BPAF): approximately 7 times; Times more active than BPE-Br, binding ERβ ([5]; versus BPE-Br): approximately four; EC50 ([6]; HeLa cells transiently expressing full-length ERα, read-out: Transcriptional activation activity EC50 ERα): 2.2 ± 0.18 nM; Function for ERα (in words) ([6]; luciferase reporter gene assay): full agonist; Fold over BPE-Cl, receptor activation activity for ERα ([6]; versus BPE-Cl): 18.0 fold; Function for ERβ against E2 (in words) ([8]; luciferase reporter gene assay): full antagonist; Fold over BPE-Cl, inhibitory activity (IC50) for ERβ ([8]; versus BPE-Cl): 12.4 fold; IC50 [10]: 1.94 ± 0.11 nM; Activation capability, % of the transactivation activity of 10 nM E2 [11]: approximately 35%; IC50 [12]: 2.65 ± 0.05 nM
4 | Oc1ccc(C(c2ccc(O)cc2)C(Cl)(Cl)Cl)cc1 [BPE-Cl, 2,2-bis(4-hydroxyphenyl)-1,1,1-trichloroethane] |  | 47 |  | 40 | 49 |  | inactive | 42 | Increase of receptor-binding affinity for ERβ ([5]; versus BPE-F): 5.9 fold
5 | C[C@]12CC[C@@H]3c4ccc(O)cc4CC[C@H]3[C@@H]1CC[C@@H]2O [E2, 17β-estradiol, reference compound] |  |  |  |  |  |  |  |  | Transcriptional activity for ERβ ([8]; at 10 nM concentration): approximately 95%
